The record followed here is patent US20240245704A1, “PHARMACEUTICAL COMPOSITION AND USE OF MULTI-KINASE INHIBITOR” (TRANSTHERA SCIENCES (NANJING), INC., priority 2021, published 2024).

In the assay the test system is human triple negative breast cancer BC408 subcutaneous xenograft tumor model. The experiment in a line: In vivo pharmacodynamic study on triple negative breast cancer patient-derived xenograft (PDX) subcutaneous tumor model. Also noted: species or system nude mice. The note with it: for TGI: TGI=1-T/C from relative tumor volumes. As to the method: The tumor masses were inoculated into the right back of the mice, the animals were weighed before administration, and tumor volumes were measured. Grouping was designed in blocks according to the tumor volume, with 8 mice per group except for the vehicle control, which contained 6 mice.
Administration was carried out as in Table 3 below.
Animals were monitored daily for health status and mortality, body weight and tumor volume were measured twice a week, and samples were collected after the last administration. […] T/C % is the relative tumor proliferation rate, i.e., the percentage of the relative tumor volume in the treatment and control groups at a given time point. T and C are relative tumor volumes (RTVs) of the treatment and control groups at a given time point, respectively. The calculation formula is as follows: T/C %=TRTV/CRTV×100% (TRTV: mean RTV for treatment group; CRTV: mean RTV for vehicle control group; RTV=Vt/V0, wherein V0 is the tumor volume of the animal at the time of grouping, and Vt is the tumor volume of the animal after treatment).
(In general: Xenograft models place foreign cells or tissue in a host animal.)

The mark [1] stands for this setting: BC408 PDX in female nude mice, compound 29 15 mg/kg oral Qd*5 days/week, paclitaxel injection 25 mg/kg intraperitoneal Qw, 5 weeks.

A word on the TGI: it is the reduction of tumour growth relative to the control group. Low readings indicate little slowing of growth, high ones much slowing of growth. Turning to `Cc1[nH]nc2c1N=C(c1ccccc1Cl)c1cnc(N3CCOCC3)cc1N2` [Compound 29], under setting [1], the Tumor volume is 666 mm^3 and the TGI amounted to 72%. The “Inhibitory effect on the triple negative breast cancer PDX subcutaneous tumor model (in words)” value (BC408 PDX, doses as in Table 3) is reported as “significant inhibitory effect”.
Under setting [1], `CC(=O)O[C@H]1C(=O)[C@@]2(C)[C@H]([C@H](OC(=O)c3ccccc3)[C@]3(O)C[C@H](OC(=O)[C@H](O)[C@@H](NC(=O)c4ccccc4)c4ccccc4)C(C)=C1C3(C)C)[C@]1(OC(C)=O)CO[C@@H]1C[C@@H]2O` [Paclitaxel, paclitaxel, reference compound] registered a TGI of 58%.
